Assay results taken from the NIST ThermoML archive (doi:10.1016/j.jct.2009.04.005).
Numbers after ± are expanded uncertainties.

Details: 298.15 K, Liquid; for vapor or sublimation pressure: Closed cell (Static) method; for mass density: Vibrating tube method

Row | SMILES | vapor or sublimation pressure [kPa] | mass density [kg/m3]
1 | CCCCCC [hexane] | 20.22 ± 0.05 | 654.96 ± 0.33
2 | CCCCO [butan-1-ol] | 0.91 ± 0.012 | 805.802 ± 0.15
3 | CCCCCl [1-chlorobutane] | 13.52 ± 0.034 | 880.805 ± 0.3
4 | CCC(C)O (stereo not drawn) [butan-2-ol] | 2.34 ± 0.02 | 802.451 ± 0.31
